Here are results for 3 compounds from patent US20090298936A1, “METHOD FOR ENERGIZING HUMAN BEINGS” (SYMRISE GmbH & Co. KG, priority 2008, published 2009).

In this test the test system is healthy human subjects (panelists). As to the kind of experiment: Sniff test with heartbeat measurement (finger clip Heart Rhythm Monitor, Freeze-Framer 2.0) on human panelists. The test is classed as in vivo. Particulars: for energizing effect compared with Amarocite and the mixtures: solution in mineral oil. The source says: In order to introduce compounds of group (a) or a sensory complex as described above into the nasal cavity that will occur using many types of products containing the sensory complex the following method of human testing and data collection was developed, standardized and used to collect and analyze data to substantiate the energizing effects of the sensory complex materials in group (a).
Data collection and analysis of each panelists's heart rate was made using a finger clip attachment for the Heart Rhythm Monitor using Freeze-Framer® 2.0 software from HeartMath®, 14700 West Park Avenue, Boulder Creek, Calif.
The test is divided into 3 parts: • 1) the pre-sniff-test period: places the panelist in a neutral state (15 min), • 2) the sniff-test period (5 min), • 3) the post-sniff-test period (10 min). Typically during each test session, three fragrances (single compound or mixture of compounds) are presented to the panelist, so one test lasts for one hour.

Where “and” joins values, the source holds several entries; their conditions need not be identical. Identical values can stand only once.

For `COC(OC)C(C)(C)CC=C(C)C` [Amarocite ®, 1,1-dimethoxy-2,2,5-trimethyl-4-hexene], for the setting “individual panelists A-G, after inhalation, 1 wt.-% solution in mineral oil”, the “Heartbeat (bpm) After” value is 77 bpm and 81 bpm and 70 bpm and 78 bpm and 72 bpm and 71 bpm and 90 bpm. Moreover, for the setting “individual panelists A-G, after minus before, 1 wt.-% solution in mineral oil”, the “Heartbeat (bpm) Difference” value was “+9 bpm and +25 bpm and +6 bpm (2×) and +10 bpm and +12 bpm (2×)”. For the same compound, the “Heartbeat (bpm) Before” value (individual panelists A-G, before inhalation (baseline), 1 wt.-% solution in mineral oil) was 68 bpm (2×) and 56 bpm and 64 bpm and 60 bpm and 59 bpm and 84 bpm. Also, the “Heartbeat (bpm) After, Mean” value (mean of panelists A-G, after inhalation, 1 wt.-% solution in mineral oil) was 77 bpm. In addition, under “mean of panelists A-G, after minus before, 1 wt.-% solution in mineral oil”, the “Heartbeat (bpm) Difference, Mean” value is “+11.4 bpm”. Moreover, the “Heartbeat (bpm) Before, Mean” value (mean of panelists A-G, before inhalation (baseline), 1 wt.-% solution in mineral oil) amounted to 65.6 bpm. In addition, the “average heart rate increase” value (panelists, administered according to the protocol) worked out at 17.3%.

In the case of `CCCCCC1C(=O)CCC1CC(=O)OC` (stereo not drawn) [methyl dihydro jasmonate], the “energizing effect compared with Amarocite and the mixtures” value (2.0 wt.-% alone) was “Stronger energizing effects”.

`CC(C)CCCC(C)CCO` (stereo not drawn) [tetrahydrogeraniol]: the “energizing effect compared with Amarocite and the mixtures” value (0.8 wt.-% alone) is “Stronger energizing effects”.
